# Inconclusive results are not listed. The source made the active and inactive calls.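 Rule for the calls: active = every test run gives a falling-signal AC50 no higher than twice the top tested dose; inconclusive = runs disagree, or a flat partial drop, or a poor fit; inactive = all runs inactive, including rising signal.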
# Target: Endoplasmic reticulum aminopeptidase 2 (Homo sapiens) (UniProt Q6P179)
# Assay: ERAP2 aminopeptidase inhibitors, dose response, selectivity assay for selective ERAP1 modulator project, biochemical, plate reader, dry powder samples (AID 1117286)
# Conditions: Recombinant ERAP2, Arg-AMC cleavage fluorescence, 1 h
# Chain of Endoplasmic reticulum aminopeptidase 2 (Homo sapiens) (Q6P179 whole entry, looked up): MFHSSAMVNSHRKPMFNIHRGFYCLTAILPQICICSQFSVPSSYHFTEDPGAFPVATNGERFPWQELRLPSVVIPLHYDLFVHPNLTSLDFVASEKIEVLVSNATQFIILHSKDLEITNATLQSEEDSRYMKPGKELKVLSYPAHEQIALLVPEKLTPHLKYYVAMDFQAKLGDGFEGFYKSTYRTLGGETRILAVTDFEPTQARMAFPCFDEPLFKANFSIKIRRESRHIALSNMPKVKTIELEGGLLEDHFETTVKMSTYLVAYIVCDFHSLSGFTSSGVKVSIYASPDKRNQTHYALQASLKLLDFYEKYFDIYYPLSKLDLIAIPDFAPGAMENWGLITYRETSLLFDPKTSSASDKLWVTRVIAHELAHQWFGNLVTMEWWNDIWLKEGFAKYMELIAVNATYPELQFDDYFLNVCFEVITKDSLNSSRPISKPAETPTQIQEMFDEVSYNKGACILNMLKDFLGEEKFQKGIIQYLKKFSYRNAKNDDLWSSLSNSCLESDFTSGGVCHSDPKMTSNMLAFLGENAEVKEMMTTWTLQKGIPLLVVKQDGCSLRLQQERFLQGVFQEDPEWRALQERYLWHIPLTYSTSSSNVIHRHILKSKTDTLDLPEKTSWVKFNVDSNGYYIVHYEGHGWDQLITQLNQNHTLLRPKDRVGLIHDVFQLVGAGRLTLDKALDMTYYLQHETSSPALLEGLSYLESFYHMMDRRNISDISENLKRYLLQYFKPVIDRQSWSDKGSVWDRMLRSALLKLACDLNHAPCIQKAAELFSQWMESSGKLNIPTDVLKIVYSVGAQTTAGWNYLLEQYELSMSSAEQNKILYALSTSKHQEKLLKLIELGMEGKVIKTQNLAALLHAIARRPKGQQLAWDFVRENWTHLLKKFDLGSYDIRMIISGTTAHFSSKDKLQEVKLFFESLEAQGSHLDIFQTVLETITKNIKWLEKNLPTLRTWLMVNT
row,Structure (SMILES),AC50
1,CC(=O)N1CCN(C(=O)[C@@H]2CCN2C(=O)Nc2ccc(C)cc2)CC1,> 100 µM (inactive)
2,COc1ccc(C(=O)Nc2cc(C(F)(F)F)ccc2N2CCCCC2)cc1S(=O)(=O)O,> 100 µM (inactive)

# Same assay, conditions: Recombinant ERAP2, Arg-AMC cleavage fluorescence, 1 h; at 26 µM (top of the series)
row,Structure (SMILES),"activity change, negative = inhibition"
1,COc1ccc(C2=NN(c3ccc(C(=O)O)cc3)C(c3ccc(OC)c(OC)c3)C2)cc1 (configuration not stated),inactive

# Same assay, conditions: Recombinant ERAP2, Arg-AMC cleavage fluorescence, 1 h; at 50 µM (top of the series)
row,Structure (SMILES),"activity change, negative = inhibition"
1,CC(=O)N1CCN(C(=O)C2CCCN2C(=O)Nc2ccc(C)cc2)CC1 (configuration not stated),inactive
2,O=S(=O)(Nc1cc(C(F)(F)F)ccc1N1CCCCC1)c1ccc(-c2ccccc2)cc1,inactive
3,CC(=O)N1CCN(C(=O)C2(NC(=O)NCCc3ccccc3)CCCCC2)CC1,inactive
4,COc1ccc(C(=O)O)cc1S(=O)(=O)Nc1cc(C(F)(F)F)ccc1N(C)C,inactive
5,COc1ccc(C(=O)O)cc1S(=O)(=O)Nc1cc(C)ccc1N1CCCCC1,inactive
6,COc1ccc(C(=O)Nc2ccccc2N2CCCCC2)cc1S(=O)(=O)O,inactive
7,CC(=O)N1CCN(C(=O)C2(NC(=O)Nc3ccccc3F)CCCCC2)CC1,inactive
8,O=[N+]([O-])c1cccc(S(=O)(=O)Nc2cc(C(F)(F)F)ccc2N2CCCCC2)c1,inactive
9,COc1ccc(C(=O)O)cc1S(=O)(=O)Nc1cc(C(F)(F)F)ccc1N1CCCCC1,inactive
10,COc1ccc(C(=O)O)cc1S(=O)(=O)Nc1cc(C(F)(F)F)ccc1N1CCOCC1,inactive
11,COc1ccc(C(=O)Nc2cccc(C(F)(F)F)c2)cc1S(=O)(=O)O,inactive
12,NC(=NCCc1c[nH]c2ccccc12)NS(=O)(=O)c1cc(F)ccc1F,inactive
13,CC(=O)N1CCN(C(=O)C2(NC(=O)Nc3ccc(C)cc3)CCCCC2)CC1,inactive
14,CC(=O)N1CCN(C(=O)C(C)(C)NC(=O)Nc2ccc(C)cc2)CC1,inactive
15,COc1cccc(NC(=O)NC2(C(=O)N3CCN(C(C)=O)CC3)CCCCC2)c1,inactive
16,COc1ccc(C(=O)O)cc1S(=O)(=O)Nc1cc(F)ccc1N1CCCCC1,inactive
17,N#Cc1ccc(S(=O)(=O)Nc2cc(C(F)(F)F)ccc2N2CCCCC2)cc1,inactive
18,CC(=O)N1CCN(C(=O)C2(NC(=O)Nc3ccccc3)CCCC2)CC1,inactive
19,CC(=O)N1CCN(C(=O)C2(NC(=O)Nc3ccc(F)cc3)CCCCC2)CC1,inactive
20,CC(=O)N1CCN(C(=O)C2(NC(=O)Nc3ccc(C(C)C)cc3)CCCCC2)CC1,inactive
21,COc1ccc(S(=O)(=O)Nc2cc(C(F)(F)F)ccc2N2CCCCC2)cc1,inactive
22,O=S(=O)(Nc1cc(C(F)(F)F)ccc1N1CCCCC1)c1ccc(Cl)cc1,inactive
23,CC(=O)N1CCN(C(=O)C2(NC(=O)Nc3ccccc3)CCCCC2)CC1,inactive
24,CC(=O)N1CCN(C(=O)CNC(=O)Nc2ccc(C)cc2)CC1,inactive
25,COc1ccc(C(=O)Nc2cc(C(F)(F)F)ccc2N2CCCC2)cc1S(=O)(=O)O,inactive

row,Structure (SMILES),"activity change, negative = inhibition"
1,O=S(=O)(Nc1cc(C(F)(F)F)ccc1N1CCCCC1)c1ccc(Br)cc1,inactive
2,O=[N+]([O-])c1ccc(S(=O)(=O)Nc2cc(C(F)(F)F)ccc2N2CCCCC2)c([N+](=O)[O-])c1,inactive
3,Cn1cnc(S(=O)(=O)Nc2cc(C(F)(F)F)ccc2N2CCCCC2)c1,inactive
4,Cc1ccccc1S(=O)(=O)Nc1cc(C(F)(F)F)ccc1N1CCCCC1,inactive
5,CC(=O)N1CCN(C(=O)C2(NC(=O)Nc3cccc(C(F)(F)F)c3)CCCCC2)CC1,inactive
6,CC(=O)N1CCN(C(=O)C2(NC(=O)Nc3ccc(C(C)C)cc3)CCCC2)CC1,inactive
7,COc1ccc(NC(=O)NC2(C(=O)N3CCN(C(C)=O)CC3)CCCCC2)cc1,inactive
8,CC(=O)N1CCN(C(=O)C2(NC(=O)Nc3ccc(C(F)(F)F)cc3)CCCC2)CC1,inactive
9,O=S(=O)(Nc1cc(C(F)(F)F)ccc1N1CCCCC1)c1cc(Cl)cc(Cl)c1,inactive
10,CC(=O)N1CCN(C(=O)C2(NC(=O)Nc3ccc(F)cc3)CCCC2)CC1,inactive
11,O=S(=O)(Nc1cc(C(F)(F)F)ccc1N1CCCCC1)c1ccccc1,inactive
12,Cc1ccc(NC(=O)NC2(C(=O)N3CCN(c4ccccc4)CC3)CCCCC2)cc1,inactive
13,Cc1ccc(NC(=O)NC2(C(=O)N3CCOCC3)CCCCC2)cc1,inactive
14,CC(=O)N1CCN(C(=O)C2(NC(=O)Nc3ccc(Cl)cc3)CCCCC2)CC1,inactive
15,COc1ccc(C(=O)O)cc1S(=O)(=O)Nc1ccccc1N1CCCCC1,inactive
16,CC(=O)N1CCN(C(=O)C2(NC(=O)NC(C)(C)C)CCCCC2)CC1,inactive
17,Cc1ccc(NC(=O)NC2(C(=O)N3CCNCC3)CCCCC2)cc1,inactive
18,COc1ccc(C(=O)Nc2cc(C)ccc2N2CCCCC2)cc1S(=O)(=O)O,inactive
19,O=S(=O)(Nc1cc(C(F)(F)F)ccc1N1CCCCC1)c1ccc(F)cc1,inactive
20,COc1ccc(C(=O)Nc2cc(F)ccc2N2CCCCC2)cc1S(=O)(=O)O,inactive
21,O=C(Nc1cc(C(F)(F)F)ccc1N1CCCCC1)c1ccc(S(=O)(=O)O)cc1,inactive
22,CC(=O)N1CCN(C(=O)C2(NC(=O)Nc3ccccc3C(F)(F)F)CCCCC2)CC1,inactive
23,O=S(=O)(Nc1cc(C(F)(F)F)ccc1N1CCCCC1)c1ccc(C(F)(F)F)cc1,inactive
24,CC(=O)N1CCN(C(=O)C2(NC(=O)Nc3cccc(F)c3)CCCCC2)CC1,inactive

# — PubChem BioAssay AID1117286 (Broad Institute, 2014)
